From patent US11691949B2, “Quinoline sulfonamide compounds and their use as antibacterial agents” (OTAGO INNOVATION LIMITED, priority 2017, dated 2023) come the findings set out here.

In brackets after ≈: the same amount, converted by molar mass. Like-named read-outs stand apart in the source and are kept apart here.

Type in all cases: cell-based
The subject of test [1] is S. uberis ATCC 19436. Put plainly: MIC by broth microdilution, S. uberis. Particulars: Streptococcus uberis. The gist of the method: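 The MIC against S. uberis ATCC 19436 was the lowest compound concentration showing no growth by OD600 after 24 h at 37° C. with 200 rpm shaking. Cultures grown overnight were adjusted to OD600 ~0.025 so wells held approximately 5×10^5 cfu/mL in THB. Two-fold dilution series were made at a final volume of 200 μl. Media and untreated controls were run in triplicate on each plate.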
(In general: Broth dilution looks for growth in wells or tubes with falling amounts of substance.)

The test system of the next test is E. coli ATCC 10536. The test can be described thus: MBC by Miles-Misra drop-plate method, E. coli. Particulars: Escherichia coli. As to the method:
(§1) Antibacterial susceptibility testing was performed in triplicate (biological) by measuring minimum inhibitory concentrations (MICs) by broth microdilution in 96-well flat bottom microtiter plates (ThermoFisher Scientific, New Zealand). S. uberis ATCC 19436, S. aureus ATCC 6538, or E. coli ATCC 10596 cells grown overnight were diluted to an OD600 of approximately 0.025, so that the final concentration of cells in the MIC assay was approximately 5×10^5 cfu/mL in media as follows: S. uberis; Todd Hewitt Broth (THB), S. aureus; Tryptic Soy Broth (TSB) and Cation Adjusted Muller Hinton Broth (CAMHB), and E. coli; Lysogeny Borth (LB) and CAMHB, before being dispensed into microtiter wells. As required additional sterile Zinc Sulphate (Heptahydrate) was supplemented into the media, so the final concentration was 50 μM. Test compounds were added to starting wells and two-fold serial dilutions were undertaken to generate a range of inhibitor concentrations at a final volume of 200 μl. Media and test compound-free (untreated) controls were included in each microtiter plate in triplicate. After 24 h incubation at 37° C. and 200 rpm, the OD600 of wells were read using a Varioskan Flash plate reader (ThermoFisher Scientific, New Zealand). The MIC was reported as the lowest concentration of the test compound for which no growth occurred, as determined by OD600 readings. The minimum bactericidal concentration (MBC) was determined using the Miles-Misra drop-plate method to measure the viability of cells in response to test compound challenge.

Test [2] concerns S. aureus ATCC 6538. Put plainly: MBC by Miles-Misra drop-plate method, S. aureus. The conditions noted are these: Staphylococcus aureus. The procedure:
as §1

Test [3] has as its system S. uberis ATCC 19436. Put plainly: MBC by Miles-Misra drop-plate method, S. uberis. The conditions noted are these: Streptococcus uberis. As to the method:
as §1

The subject of test [4] is S. aureus ATCC 6538. The test can be described thus: MIC by broth microdilution, S. aureus. The conditions noted are these: Staphylococcus aureus. The gist of the method:
(§2)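 Media: TSB or CAMHB for S. aureus, LB or CAMHB for E. coli, with zinc sulphate to 50 μM final where required. Cells at ~5×10^5 cfu/mL met two-fold compound series; growth was scored by OD600 after 24 h shaking at 37° C.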

A further test relates to E. coli ATCC 10596. The test can be described thus: MIC by broth microdilution, E. coli. The conditions noted are these: Escherichia coli. In a few lines:
as §2

The mark [5] stands for this setting: ATCC19436, read-out: S. uberis ATCC 19436 MIC, No Zinc.
Setting [6] is: ATCC19436, read-out: S. uberis ATCC 19436 MIC, Zinc (50 μM).
The mark [7] stands for this setting: ATCC10536, read-out: E. coli ATCC 10536 MBC, No Zinc.
The mark [8] stands for this setting: ATCC10536, read-out: E. coli ATCC 10536 MBC, Zinc (50 μM).
Setting [9] is: ATCC6538, read-out: S. aureus ATCC 6538 MBC, No Zinc.
The mark [10] stands for this setting: ATCC6538, read-out: S. aureus ATCC 6538 MBC, Zinc (50 μM).
Setting [11] is: ATCC19436, read-out: S. uberis ATCC 19436 MBC, No Zinc.
[12] abbreviates: ATCC19436, read-out: S. uberis ATCC 19436 MBC, Zinc (50 μM).
The mark [13] stands for this setting: ATCC6538, read-out: S. aureus ATCC 6538 MIC, No Zinc.
Setting [14] is: ATCC6538, read-out: S. aureus ATCC 6538 MIC, Zinc (50 μM).
Where [15] appears, read: ATCC 10536 / ATCC 10596, read-out: E. coli ATCC 10536 MIC, No Zinc.
The mark [16] stands for this setting: ATCC 10536 / ATCC 10596, read-out: E. coli ATCC 10536 MIC, Zinc (50 μM).

Broadly, the MIC is the lowest concentration that inhibits growth of the organism. As usually defined, the MBC is the smallest concentration meeting the test's criterion for killing. As to `CN1CCN(CCNCc2ccc3cccc(NS(=O)(=O)c4ccc(C(F)(F)F)cc4)c3n2)CC1` [ZDR114, N-(2-(((2-(4-Methylpiperazin-1-yl)ethyl)amino)methyl)quinolin-8-yl)-4-(trifluoromethyl)benzenesulfonamide di-trifluoroacetate], the MIC in the test with S. uberis ATCC 19436 [1] (setting [5]) was determined as 32 µg/mL (≈ 63 µM); in the test with S. uberis ATCC 19436 [1] (setting [6]) it was 4 µg/mL (≈ 7.88 µM); in the test on S. aureus ATCC 6538 [4] (setting [13]) it was 64 µg/mL (≈ 126 µM); in the test on S. aureus ATCC 6538 [4] (setting [14]) it was 64 µg/mL (≈ 126 µM); in the test with E. coli ATCC 10596 (setting [15]), 64 µg/mL (≈ 126 µM); in the test with E. coli ATCC 10596 (setting [16]) it was 64 µg/mL (≈ 126 µM). Besides, the minimal bactericidal concentration (MBC) in the test on E. coli ATCC 10536 (setting [7]) was > 256 µg/mL; in the test on E. coli ATCC 10536 (setting [8]) it was 64 µg/mL (≈ 126 µM); in the test with S. aureus ATCC 6538 [2] (setting [9]), 128 µg/mL (≈ 252 µM); in the test on S. aureus ATCC 6538 [2] (setting [10]), 64 µg/mL (≈ 126 µM); in the test on S. uberis ATCC 19436 [3] (setting [11]) it was 32 µg/mL (≈ 63 µM); in the test on S. uberis ATCC 19436 [3] (setting [12]), 4 µg/mL (≈ 7.88 µM).
For the compound `O=S(=O)(Nc1cccc2ccc(CNCCCN3CCCCC3)nc12)c1ccc(C(F)(F)F)cc1` [ZDR115, N-(2-(((3-(Piperidin-1-yl)propyl)amino)methyl)quinolin-8-yl)-4-(trifluoromethyl)benzenesulfonamide di-trifluoroacetate], the MIC in the test with S. uberis ATCC 19436 [1] (setting [5]) came out at 4 µg/mL (≈ 7.9 µM); in the test on S. uberis ATCC 19436 [1] (setting [6]) it was 2 µg/mL (≈ 3.95 µM); in the test with S. aureus ATCC 6538 [4] (setting [13]), 16 µg/mL (≈ 31.6 µM); in the test with S. aureus ATCC 6538 [4] (setting [14]), 16 µg/mL (≈ 31.6 µM); in the test with E. coli ATCC 10596 (setting [15]), 16 µg/mL (≈ 31.6 µM); in the test with E. coli ATCC 10596 (setting [16]) it was 16 µg/mL (≈ 31.6 µM). Further, the MBC with E. coli ATCC 10536 (setting [7]) worked out at 16 µg/mL (≈ 31.6 µM); with E. coli ATCC 10536 (setting [8]), 16 µg/mL (≈ 31.6 µM); in the test with S. aureus ATCC 6538 [2] (setting [9]), 16 µg/mL (≈ 31.6 µM); in the test on S. aureus ATCC 6538 [2] (setting [10]), 16 µg/mL (≈ 31.6 µM); in the test with S. uberis ATCC 19436 [3] (setting [11]) it was 8 µg/mL (≈ 15.8 µM); with S. uberis ATCC 19436 [3] (setting [12]), 4 µg/mL (≈ 7.9 µM).
As for `O=S(=O)(Nc1cccc2ccc(CNCCCN3CCOCC3)nc12)c1ccc(C(F)(F)F)cc1` [ZDR116, N-(2-(((3-Morpholinopropyl)amino)methyl)quinolin-8-yl)-4-(trifluoromethyl)benzenesulfonamide], the MIC was 32 µg/mL (≈ 62.9 µM) in the test with S. uberis ATCC 19436 [1] (ATCC19436, No Zinc, read-out: S. uberis ATCC 19436 MIC); 2 µg/mL (≈ 3.93 µM) in the test on S. uberis ATCC 19436 [1] (ATCC19436, Zinc (50 μM), read-out: S. uberis ATCC 19436 MIC); 64 µg/mL (≈ 126 µM) in the test on S. aureus ATCC 6538 [4] (ATCC6538, No Zinc, read-out: S. aureus ATCC 6538 MIC); 64 µg/mL (≈ 126 µM) with S. aureus ATCC 6538 [4] (ATCC6538, Zinc (50 μM), read-out: S. aureus ATCC 6538 MIC); > 256 µg/mL in the test on E. coli ATCC 10596 (ATCC 10536 / ATCC 10596, No Zinc, read-out: E. coli ATCC 10536 MIC); > 256 µg/mL with E. coli ATCC 10596 (ATCC 10536 / ATCC 10596, Zinc (50 μM), read-out: E. coli ATCC 10536 MIC). The minimal bactericidal concentration (MBC) in the test with E. coli ATCC 10536 (ATCC10536, No Zinc, read-out: E. coli ATCC 10536 MBC) is > 256 µg/mL; in the test on E. coli ATCC 10536 (ATCC10536, Zinc (50 μM), read-out: E. coli ATCC 10536 MBC), > 256 µg/mL; in the test on S. aureus ATCC 6538 [2] (ATCC6538, No Zinc, read-out: S. aureus ATCC 6538 MBC), 128 µg/mL (≈ 252 µM); in the test on S. aureus ATCC 6538 [2] (ATCC6538, Zinc (50 μM), read-out: S. aureus ATCC 6538 MBC), > 256 µg/mL; in the test with S. uberis ATCC 19436 [3] (ATCC19436, No Zinc, read-out: S. uberis ATCC 19436 MBC) it was 64 µg/mL (≈ 126 µM); in the test with S. uberis ATCC 19436 [3] (ATCC19436, Zinc (50 μM), read-out: S. uberis ATCC 19436 MBC), 2 µg/mL (≈ 3.93 µM).
`CN1CCN(CCCNCc2ccc3cccc(NS(=O)(=O)c4ccc(C(F)(F)F)cc4)c3n2)CC1` [ZDR117, N-(2-(((3-(4-Methylpiperazin-1-yl)propyl)amino)methyl)quinolin-8-yl)-4-(trifluoromethyl)benzenesulfonamide di-trifluoroacetate]: the MIC in the test on S. uberis ATCC 19436 [1] (setting [5]) was found to be 16 µg/mL (≈ 30.7 µM); with S. uberis ATCC 19436 [1] (setting [6]), 4 µg/mL (≈ 7.67 µM); with S. aureus ATCC 6538 [4] (setting [13]), 64 µg/mL (≈ 123 µM); with S. aureus ATCC 6538 [4] (setting [14]), 64 µg/mL (≈ 123 µM); in the test with E. coli ATCC 10596 (setting [15]), 128 µg/mL (≈ 245 µM); in the test with E. coli ATCC 10596 (setting [16]), 32 µg/mL (≈ 61.3 µM). Besides, the MBC with E. coli ATCC 10536 (setting [7]) was 256 µg/mL (≈ 491 µM); in the test on E. coli ATCC 10536 (setting [8]) it was 64 µg/mL (≈ 123 µM); in the test with S. aureus ATCC 6538 [2] (setting [9]), 64 µg/mL (≈ 123 µM); in the test on S. aureus ATCC 6538 [2] (setting [10]) it was 64 µg/mL (≈ 123 µM); in the test on S. uberis ATCC 19436 [3] (setting [11]), 16 µg/mL (≈ 30.7 µM); with S. uberis ATCC 19436 [3] (setting [12]), 4 µg/mL (≈ 7.67 µM).
